Assay results taken from article PMC5698383 (Applied Biochemistry and Biotechnology, 2017).

Assays:
[1] = biological target: T1, FtFBPaseII (Francisella tularensis, UniProt Q5NEJ8); experiment: biochemical; settings: read-out: % inhibition at 1 mM
T1 construct: gene gplX

[2] = biological target: T1, FtFBPaseII

T1 sequence (Q5NEJ8 1-328): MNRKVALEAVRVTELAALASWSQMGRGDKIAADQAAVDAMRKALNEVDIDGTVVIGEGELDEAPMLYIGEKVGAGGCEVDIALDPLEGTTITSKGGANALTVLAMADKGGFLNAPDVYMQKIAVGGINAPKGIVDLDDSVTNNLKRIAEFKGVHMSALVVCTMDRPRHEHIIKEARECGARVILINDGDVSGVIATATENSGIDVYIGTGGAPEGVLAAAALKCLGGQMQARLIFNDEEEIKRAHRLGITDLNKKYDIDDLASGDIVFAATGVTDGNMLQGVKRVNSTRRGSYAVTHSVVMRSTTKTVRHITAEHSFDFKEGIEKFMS

Row | Compound | inhibition at 1000 µM [1] [%] | % inhibition at 150 μM [2] [%]
1 | Nc1ncnc2c1ncn2[C@@H]1O[C@H](COP(=O)(O)OP(=O)(O)O)[C@@H](O)[C@H]1O [Adenosine diphosphate] | 28 | –
2 | O=P(O)(O)O [phosphate] | – | 69
